Measurements reported in PMC4685510, “A Cell Biologist’s Field Guide to Aurora Kinase Inhibitors” (Frontiers in Oncology, 2015).

Experiments:
Test in all cases: biochemical
Type in all cases: biochemical
[1] = molecular target: 363 human kinases (including Aurora A/B/C) (Homo sapiens, UniProt O75582); details: MSK1/RPS6KA5; for remaining activity at 0.1 µM: 100 nM; for remaining activity at 0.1 µM / remaining activity at 0.5 µM: read-out: % Enzyme Activity (relative to DMSO controls)
Excerpt: (§1) However, the Aurora A/B selectivity ratios derived from our in vitro and in vivo data can be compared to prioritize inhibitors.

[2] = molecular target: 363 human kinases (including Aurora A/B/C) (Homo sapiens, UniProt P23458); details: JAK1; for remaining activity at 0.1 µM: 100 nM; for remaining activity at 0.1 µM / remaining activity at 0.5 µM: read-out: % Enzyme Activity (relative to DMSO controls)
Excerpt: as §1

[3] = molecular target: 363 human kinases (including Aurora A/B/C) (Homo sapiens, UniProt Q15375); details: EPHA7, [ATP] 100 µM; for remaining activity at 0.1 µM: 100 nM; for remaining activity at 0.1 µM / remaining activity at 0.5 µM: read-out: % Enzyme Activity (relative to DMSO controls)
Excerpt: as §1

[4] = molecular target: T1, 363 human kinases (including Aurora A/B/C) (Homo sapiens, UniProt Q8NE63); details: HIPK4; for remaining activity at 0.1 µM: 100 nM; for remaining activity at 0.1 µM / remaining activity at 0.5 µM: read-out: % Enzyme Activity (relative to DMSO controls)
T1 sequence (Q8NE63 1-616): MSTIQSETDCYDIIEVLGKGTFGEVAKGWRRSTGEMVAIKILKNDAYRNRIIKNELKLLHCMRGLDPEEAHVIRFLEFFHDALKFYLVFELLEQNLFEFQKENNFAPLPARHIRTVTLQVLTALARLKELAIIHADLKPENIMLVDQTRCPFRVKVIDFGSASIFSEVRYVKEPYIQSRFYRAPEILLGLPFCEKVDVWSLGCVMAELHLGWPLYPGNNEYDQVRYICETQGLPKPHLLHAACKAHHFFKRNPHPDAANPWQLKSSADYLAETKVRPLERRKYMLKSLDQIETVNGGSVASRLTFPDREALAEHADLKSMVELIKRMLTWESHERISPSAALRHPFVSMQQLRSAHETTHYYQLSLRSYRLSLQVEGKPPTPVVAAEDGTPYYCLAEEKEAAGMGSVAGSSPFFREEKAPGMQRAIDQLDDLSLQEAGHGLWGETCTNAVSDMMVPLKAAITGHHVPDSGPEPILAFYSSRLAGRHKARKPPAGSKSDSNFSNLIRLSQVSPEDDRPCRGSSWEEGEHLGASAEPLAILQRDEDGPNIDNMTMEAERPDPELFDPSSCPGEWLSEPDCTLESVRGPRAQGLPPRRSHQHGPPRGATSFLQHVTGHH
Excerpt: as §1

[5] = molecular target: T2, 363 human kinases (including Aurora A/B/C) (Homo sapiens, UniProt Q8NG66); details: NEK11; for remaining activity at 0.1 µM: 100 nM; for remaining activity at 0.1 µM / remaining activity at 0.5 µM: read-out: % Enzyme Activity (relative to DMSO controls)
T2 sequence (Q8NG66 1-645): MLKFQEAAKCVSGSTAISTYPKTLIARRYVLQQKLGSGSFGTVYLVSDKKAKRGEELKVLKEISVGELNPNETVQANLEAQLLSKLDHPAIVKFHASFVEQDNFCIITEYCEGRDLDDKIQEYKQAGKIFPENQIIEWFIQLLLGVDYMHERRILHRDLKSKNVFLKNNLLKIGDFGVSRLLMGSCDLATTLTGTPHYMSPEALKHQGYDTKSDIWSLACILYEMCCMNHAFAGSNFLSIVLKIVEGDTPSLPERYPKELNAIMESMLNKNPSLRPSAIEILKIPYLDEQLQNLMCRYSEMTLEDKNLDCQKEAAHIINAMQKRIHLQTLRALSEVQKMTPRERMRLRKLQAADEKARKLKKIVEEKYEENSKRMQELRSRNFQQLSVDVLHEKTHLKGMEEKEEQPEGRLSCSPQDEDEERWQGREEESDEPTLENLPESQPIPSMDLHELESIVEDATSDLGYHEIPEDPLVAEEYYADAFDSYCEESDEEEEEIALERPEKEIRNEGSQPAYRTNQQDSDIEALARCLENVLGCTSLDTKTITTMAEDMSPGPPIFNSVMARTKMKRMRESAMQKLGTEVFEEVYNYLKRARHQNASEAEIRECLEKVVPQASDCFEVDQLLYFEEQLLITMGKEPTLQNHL
Excerpt: as §1

[6] = molecular target: T3, 363 human kinases (including Aurora A/B/C) (Homo sapiens, UniProt Q9H2K8); details: TAOK3/JIK; for remaining activity at 0.1 µM: 100 nM; for remaining activity at 0.1 µM / remaining activity at 0.5 µM: read-out: % Enzyme Activity (relative to DMSO controls)
T3 sequence (Q9H2K8 1-898): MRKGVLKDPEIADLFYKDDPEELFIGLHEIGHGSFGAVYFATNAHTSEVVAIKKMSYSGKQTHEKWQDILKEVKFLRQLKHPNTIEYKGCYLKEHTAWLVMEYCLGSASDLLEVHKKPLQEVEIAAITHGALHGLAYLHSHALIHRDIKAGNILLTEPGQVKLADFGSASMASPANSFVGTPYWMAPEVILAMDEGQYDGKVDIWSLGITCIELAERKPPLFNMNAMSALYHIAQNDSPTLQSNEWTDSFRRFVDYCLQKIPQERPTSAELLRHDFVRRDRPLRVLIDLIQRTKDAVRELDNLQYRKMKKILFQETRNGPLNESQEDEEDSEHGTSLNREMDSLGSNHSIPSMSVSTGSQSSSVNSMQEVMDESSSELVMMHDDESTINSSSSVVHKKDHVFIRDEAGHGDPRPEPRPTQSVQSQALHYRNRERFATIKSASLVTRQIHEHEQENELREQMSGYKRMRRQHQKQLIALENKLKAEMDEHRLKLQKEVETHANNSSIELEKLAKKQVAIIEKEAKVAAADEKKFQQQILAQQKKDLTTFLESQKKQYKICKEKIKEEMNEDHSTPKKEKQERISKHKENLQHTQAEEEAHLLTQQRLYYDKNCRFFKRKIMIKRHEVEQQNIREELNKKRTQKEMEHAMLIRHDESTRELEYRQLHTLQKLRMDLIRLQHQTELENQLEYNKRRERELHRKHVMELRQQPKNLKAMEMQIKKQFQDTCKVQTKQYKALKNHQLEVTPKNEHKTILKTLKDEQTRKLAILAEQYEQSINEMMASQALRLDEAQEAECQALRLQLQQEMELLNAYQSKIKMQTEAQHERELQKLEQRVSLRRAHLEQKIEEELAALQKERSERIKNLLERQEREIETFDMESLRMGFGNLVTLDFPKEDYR
Excerpt: as §1

363 human kinases (including Aurora A/B/C) (Homo sapiens, UniProt P23458), sequence (P23458 whole entry): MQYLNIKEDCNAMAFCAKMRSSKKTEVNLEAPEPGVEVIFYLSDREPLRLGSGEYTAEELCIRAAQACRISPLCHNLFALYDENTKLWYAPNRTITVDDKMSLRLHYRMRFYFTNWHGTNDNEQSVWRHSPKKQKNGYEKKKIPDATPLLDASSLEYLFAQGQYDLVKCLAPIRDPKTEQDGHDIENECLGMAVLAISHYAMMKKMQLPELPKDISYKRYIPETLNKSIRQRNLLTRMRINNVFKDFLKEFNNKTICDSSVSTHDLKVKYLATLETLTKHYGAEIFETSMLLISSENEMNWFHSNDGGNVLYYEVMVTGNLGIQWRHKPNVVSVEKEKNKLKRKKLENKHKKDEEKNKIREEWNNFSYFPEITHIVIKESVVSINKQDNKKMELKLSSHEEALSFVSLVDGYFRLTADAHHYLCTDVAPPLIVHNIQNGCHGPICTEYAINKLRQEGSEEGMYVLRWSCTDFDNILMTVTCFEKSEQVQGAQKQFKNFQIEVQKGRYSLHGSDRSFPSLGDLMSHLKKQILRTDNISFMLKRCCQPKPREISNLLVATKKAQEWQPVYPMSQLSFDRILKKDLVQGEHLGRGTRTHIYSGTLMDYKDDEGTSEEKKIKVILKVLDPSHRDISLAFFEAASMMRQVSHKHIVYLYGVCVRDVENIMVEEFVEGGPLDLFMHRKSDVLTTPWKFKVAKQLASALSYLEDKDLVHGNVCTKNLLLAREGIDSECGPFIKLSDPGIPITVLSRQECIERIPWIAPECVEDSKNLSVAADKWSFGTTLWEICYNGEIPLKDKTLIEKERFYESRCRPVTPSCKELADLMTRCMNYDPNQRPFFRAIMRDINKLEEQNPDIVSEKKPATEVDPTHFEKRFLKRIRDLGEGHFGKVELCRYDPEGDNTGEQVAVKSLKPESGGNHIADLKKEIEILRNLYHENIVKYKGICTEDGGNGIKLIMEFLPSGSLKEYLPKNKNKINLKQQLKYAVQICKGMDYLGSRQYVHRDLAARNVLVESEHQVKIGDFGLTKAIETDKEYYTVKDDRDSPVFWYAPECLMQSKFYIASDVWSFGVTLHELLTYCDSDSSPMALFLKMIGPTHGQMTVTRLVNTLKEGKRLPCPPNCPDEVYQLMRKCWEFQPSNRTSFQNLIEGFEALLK
363 human kinases (including Aurora A/B/C) (Homo sapiens, UniProt Q15375), sequence (Q15375 28-998): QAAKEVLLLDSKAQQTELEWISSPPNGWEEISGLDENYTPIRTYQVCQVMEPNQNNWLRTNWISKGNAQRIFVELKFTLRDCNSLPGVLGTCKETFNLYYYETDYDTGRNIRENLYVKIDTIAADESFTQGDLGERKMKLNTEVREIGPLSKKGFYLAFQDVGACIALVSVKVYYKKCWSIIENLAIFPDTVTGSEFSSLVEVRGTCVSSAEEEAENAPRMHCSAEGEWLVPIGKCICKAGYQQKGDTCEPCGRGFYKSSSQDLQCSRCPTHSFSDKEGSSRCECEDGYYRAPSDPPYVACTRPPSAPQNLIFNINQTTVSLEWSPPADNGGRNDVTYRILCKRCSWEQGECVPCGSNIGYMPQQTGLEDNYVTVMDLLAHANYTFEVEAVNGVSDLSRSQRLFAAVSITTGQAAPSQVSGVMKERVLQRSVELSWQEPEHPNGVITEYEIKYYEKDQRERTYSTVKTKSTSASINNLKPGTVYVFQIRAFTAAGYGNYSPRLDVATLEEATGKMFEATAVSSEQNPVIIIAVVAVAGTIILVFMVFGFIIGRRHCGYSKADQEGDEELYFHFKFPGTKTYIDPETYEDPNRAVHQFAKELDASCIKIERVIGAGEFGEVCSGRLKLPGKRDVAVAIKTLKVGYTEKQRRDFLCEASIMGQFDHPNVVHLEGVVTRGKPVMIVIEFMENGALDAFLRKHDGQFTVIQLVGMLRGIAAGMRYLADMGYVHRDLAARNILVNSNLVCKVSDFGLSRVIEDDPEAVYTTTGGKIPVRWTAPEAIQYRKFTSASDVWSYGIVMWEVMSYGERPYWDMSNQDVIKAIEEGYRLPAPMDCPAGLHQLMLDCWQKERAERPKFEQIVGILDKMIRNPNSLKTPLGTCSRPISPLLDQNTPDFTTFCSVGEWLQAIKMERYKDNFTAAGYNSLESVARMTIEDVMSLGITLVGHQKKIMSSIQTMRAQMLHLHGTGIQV
363 human kinases (including Aurora A/B/C) (Homo sapiens, UniProt O75582), sequence (O75582 whole entry): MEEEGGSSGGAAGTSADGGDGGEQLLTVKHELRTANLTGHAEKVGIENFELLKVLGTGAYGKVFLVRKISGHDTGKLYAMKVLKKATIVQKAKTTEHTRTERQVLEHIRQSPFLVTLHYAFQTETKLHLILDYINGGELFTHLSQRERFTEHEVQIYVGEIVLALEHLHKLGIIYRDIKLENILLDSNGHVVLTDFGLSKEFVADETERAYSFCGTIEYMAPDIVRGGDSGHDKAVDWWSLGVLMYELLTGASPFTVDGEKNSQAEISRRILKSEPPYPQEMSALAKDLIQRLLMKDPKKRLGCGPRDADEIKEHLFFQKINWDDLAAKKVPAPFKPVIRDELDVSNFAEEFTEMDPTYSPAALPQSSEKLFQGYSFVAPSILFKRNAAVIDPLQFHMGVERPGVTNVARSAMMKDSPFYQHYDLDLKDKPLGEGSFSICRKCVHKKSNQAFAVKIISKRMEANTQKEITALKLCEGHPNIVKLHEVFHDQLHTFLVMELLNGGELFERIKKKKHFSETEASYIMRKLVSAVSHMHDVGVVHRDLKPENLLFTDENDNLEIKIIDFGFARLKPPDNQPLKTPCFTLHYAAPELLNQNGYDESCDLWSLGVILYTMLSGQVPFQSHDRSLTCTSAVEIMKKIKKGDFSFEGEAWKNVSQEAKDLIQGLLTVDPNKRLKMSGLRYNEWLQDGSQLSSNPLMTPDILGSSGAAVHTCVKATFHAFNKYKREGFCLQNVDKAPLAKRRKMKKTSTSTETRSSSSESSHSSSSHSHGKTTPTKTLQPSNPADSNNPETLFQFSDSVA

CCn1cc(-c2ccnc3[nH]c(-c4cccc(CN(C)C)c4)cc23)c(-c2ccc(NC(=O)N(C)C)cc2)n1 [GSK1070916]
remaining activity at 0.1 µM [1]: 101% | remaining activity at 0.1 µM [2]: 95.8% | remaining activity at 0.1 µM [3]: 89% | remaining activity at 0.1 µM [4]: 86.9% | remaining activity at 0.1 µM [5]: 77.7% | remaining activity at 0.1 µM [6]: 174%

O=C(c1cccc(Cl)c1F)N1CCN(Cc2cccc(Nc3nccs3)n2)CC1 [MK-8745]
% Enzyme Activity (relative to DMSO controls) ([1]; 500 nM): 93.34% | remaining activity at 0.5 µM ([1]; 500 nM): 96.3% | % Enzyme Activity (relative to DMSO controls) ([2]; 500 nM): 103.50% | remaining activity at 0.5 µM ([2]; 500 nM): 104% | % Enzyme Activity (relative to DMSO controls) ([3]; 500 nM): 62.14% | remaining activity at 0.5 µM ([3]; 500 nM): 63.1% | % Enzyme Activity (relative to DMSO controls) ([4]; 500 nM): 76.34% | remaining activity at 0.5 µM ([4]; 500 nM): 78.7% | % Enzyme Activity (relative to DMSO controls) ([5]; 500 nM): 75.49% | remaining activity at 0.5 µM ([5]; 500 nM): 76.6% | % Enzyme Activity (relative to DMSO controls) ([6]; 500 nM): 93.76% | remaining activity at 0.5 µM ([6]; 500 nM): 95.2%

O=C(O)[C@]1(Cc2cccc(Nc3nccs3)n2)CC[C@@H](Oc2cccc(Cl)c2F)CC1 [MK-5108]
remaining activity at 0.1 µM [1]: 99.7% | remaining activity at 0.5 µM ([1]; 500 nM): 86.8% | remaining activity at 0.1 µM [2]: 99.4% | remaining activity at 0.5 µM ([2]; 500 nM): 61.6% | remaining activity at 0.1 µM [3]: 35.6% | remaining activity at 0.5 µM ([3]; 500 nM): 9.76% | remaining activity at 0.1 µM [4]: 24.4% | remaining activity at 0.5 µM ([4]; 500 nM): 5.4% | remaining activity at 0.1 µM [5]: 86.5% | remaining activity at 0.5 µM ([5]; 500 nM): 73.9% | remaining activity at 0.1 µM [6]: 80.2% | remaining activity at 0.5 µM ([6]; 500 nM): 110%
